Measurements published in patent EP0374249A1, “METHOD OF STERILIZING PLANT POLLEN” (VSESOJUZNY NAUCHNO-ISSLEDOVATELSKY INST. SELSKOKHOZYAISTV. …, priority 1988, dated 1989).

Key:
[1] = system: Hirse Sorte K-9693 Kormovoe 1; test: Field test of pollen sterilisation, millet K-9693 Kormovoe 1; type: in vivo; settings: 1% aqueous emulsion, 6 kg/ha; for Prozentsatz der Sterilität / Anzahl von Körnern der Rispe bei freier Bestäubung / Anzahl von Körnern der Rispe im Isolator: period V of organogenesis; for Anzahl von Körnern der Rispe bei freier Bestäubung: free pollination; for Anzahl von Körnern der Rispe im Isolator: isolated panicles; for Prozentsatz des Ansetzens von Körnern bei freier Bestäubung: period V, non-isolated control = 100%
Text: (§1) Die gametozide Aktivität der erfindungsgemässen Sterilisationsmittel war im Feldversuch in verschiedenen Bodenklimatischen Zonen mit Teilstücken von 10 m^2 Grösse in drei- bis viermaliger Wiederholung nachgewiesen. Jedes Sterilisationsmittel wurde mindestens 5 Jahre lang geprüft.
(§2) Die Entwicklung der Perioden der Organogenese wird zytologischüberwacht. Die Behandlung von Pflanzen mit dem Sterilisationsmittel erfolgt am Anfang der fünften Periode der Organogenese nach Kupermann.
(§3) Mit dem Ahrenschiebe verwirklicht man die Isolierung von Hauptähren und anderen Stockwerken in Pergamentbeuteln. Bei Weizen und Tritikale werden Einzelisolatoren verwendet. Bei Roggen schliesst man je Ähre 5 bis 7 verschiedene nebeneinander befindliche Pflanzen unter einen gemeinsamen Isolator ein. Bei Hirse wird jede Rispe getrennt isoliert. Der Sterilitätsprozentsatz (X) für Weizen, Roggen, Tritikale und Hirse wird nach folgender Formel [formula] ermittelt.
(§4) Die Kornzahl in nicht isolierten ähren von Kontrollpflanzen wird bedingt für 100% Ansetzen bei freier Bestäubung angenommen.
(§5) Um zuverlässige Angaben zu erhalten, verwendet man 20 bis 25 Isolatoren jeder Wiederholung für Weisen und Tritikale, 10 bis 15 Gruppenisolatoren jeder Wiederholung für Roggen und Hirse.
Pflanzen der Hirse Sorte K-9693 Kormovoe 1 werden in der V. Periode der Organogenese (nach Kupermann) mit einer 1%igen wässrigen Emulsion von N-(2-Dimethylaminoäthyl) maleaminsäure, N-(3-Dimethylaminopropyl)maleaminsäure, N-Äthylmaleaminsäure, N-Karbamoylmaleaminsäure behandelt. Die Emulsion enthält 0,01 Masse% Dimethylformamid und 0,1 Masse% Kalziumalkylbenzolsulfonat mit 12 bis 14 Kohlenstoffatomen.
Der Verbrauch an Präparat beträgt 6 kg/ha. Als Kontrolle dienen Pflanzen, behandelt mit einem Verdünner ohne Sterilisationsmittel. Die Prüfergebnisse sind in der Tabelle13 dargestellt. […] Periode der Organogenese erhalten.

[2] = system: Winterweizens Sorte Mir.onovskaya 808; test: Field test of pollen sterilisation (gametocidal activity), winter wheat Mironovskaya 808; type: in vivo, Winterweizen; settings: 2% aqueous emulsion, 20 kg/ha; for Prozentsatz der Sterilität / Anzahl von Körnern der Ähre bei freier Bestäubung / Anzahl von Körnern der Ähre im Isolator: period V of organogenesis; for Anzahl von Körnern der Ähre bei freier Bestäubung: free pollination; for Anzahl von Körnern der Ähre im Isolator: isolated ears; for Prozentsatz des Ansetzens von Körnern bei freier Bestäubung: period V, non-isolated control ears = 100%
Text: Als Emulgierungsmittel wird 0,1 Masse% Kalziumalkylbenzolsulfonat mit 12 bis 14 Kohlenstoffatomen hinzugefügt. Als Adjuvans fährt man in die Emulsion 0,01 Masse% Dimethylsulfoxid ein. Der Verbrauch an Präparat beträgt 20 kg/ha. Als Kontrolle dienen Pflanzen, behandelt mit einem Verdünner ohne Sterilisationsmittel.

[3] = system: Winterweizens Sorte Bezostaya 1; test: Field test of pollen sterilisation, winter wheat Bezostaya 1; type: in vivo, Winterweizen; settings: 2% aqueous emulsion, 16 kg/ha; for Prozentsatz der Sterilität / Anzahl von Körnern der Ähre bei freier Bestäubung / Anzahl von Körnern der Ähre im Isolator: period V of organogenesis; for Anzahl von Körnern der Ähre bei freier Bestäubung: free pollination; for Anzahl von Körnern der Ähre im Isolator: isolated ears; for Prozentsatz des Ansetzens von Körnern bei breier Bestäubung: period V, non-isolated control ears = 100%
Text: Pflanzen des Winterweizens Sorte Bezostaya 1 werden in der V. Periode der Organogenese durch Zerstäubung einer 2%igen wässrigen Emulsion von N-(2-Dimethylaminoäthyl)-maleaminsäure, N-(3-Dimethylaminopropyl)-maleaminsäure, N-Äthylmaleaminsäure, N-(2-Hydroxyäthyl)-maleaminsäure, N-Karbamoylmaleaminsäure mit Hilfe deiner Rückspritze behandelt. Die Emulsion enthält 0,1 Masse% Kalziumalkylbenzolsulfonat mit 12 bis 14 Kohlenstoffatomen. Als Adjuvans führt man in die Emulsion 0,01 Masse% Tetrahydrofuran ein.
Der Verbrauch an Präparat beträgt 16 kg/ha. Als Kontrolle dienen Pflanzen, behandelt mit einem Verdünner ohne Sterilisationsmitteln.

[4] = system: Sommerweizens Sorte Moskovskaya 35; test: Field test of pollen sterilisation, spring wheat Moskovskaya 35; type: in vivo, Sommerweizen; settings: 1% aqueous emulsion, 10 kg/ha; for Prozentsatz der Sterilität / Anzahl von Körnern der Ähre bei freier Bestäubung / Anzahl von Körnern der Ähre im Isolator: period V of organogenesis; for Anzahl von Körnern der Ähre bei freier Bestäubung: free pollination; for Anzahl von Körnern der Ähre im Isolator: isolated ears; for Prozentsatz des Ansetzens von Körnern bei freier Bestäubung: period V, non-isolated control ears = 100%
Text: Pflanzen des Sommerweizens Sorte Moskovskaya 35 werden in V. Periode der Organogenese (nach Kupermann) mit einer 1%igen wässrigen Emulsion von N-(2-Dimethyl-aminoäthyl)-maleaminsäure, N-(3-Dimethylaminopropyl)-maleaminsäure, N-Äthylmaleaminsäure, N-(2-Hydroxyäthyl) maleaminsäure bzw. N-Karbamoylmaleaminsäure behandelt. Die Emulsion enthält 0,5 Masse% Kalziumalkylbenzolsulfonat mit 12 bis 14 Kohlenstoffatomen als Emulgierungsmittel und 0,01 Masse% Dimethylformamid als Adjuvans. Der Verbrauch an Präparat beträgt 10 kg/ha. Als Kontrolle dienen Pflanzen, behandelt mit einem Verdünner ohne Sterilisationsmittel.

[5] = system: Sommerweizens Sorte Botanicheskaya 4; test: Field test of pollen sterilisation, spring wheat Botanicheskaya 4; type: in vivo, Sommerweizen; settings: 1% aqueous emulsion, 6 kg/ha; for Prozentsatz der Sterilität / Anzahl von Körnern der Ähre bei freier Bestäubung / Anzahl von Körnern der Ähre im Isolator: period V of organogenesis; for Anzahl von Körnern der Ähre bei freier Bestäubung: free pollination; for Anzahl von Körnern der Ähre im Isolator: isolated ears; for Prozentsatz des Ansetzens von Körnern bei freier Bestäubung: period V, non-isolated control ears = 100%
Text: Pflanzen des Sommerweizens Sorte Botanicheskaya 4 werden in der V. Periode der Organogenese (nach Kupermann) mit einer 1%igen Wässrigen Emulsion von N-(2-Dimethyl-aminoäthyl)-maleaminsäure, N-(3-Dimethylaminopropyl)-maleaminsäure, N-Äthylmaleaminsäure, N-(2-Hydroxyäthyl)-maleaminsäure bzw. N-Karbamoylmaleaminsäure behandelt. Die Emulsion enthält 0,5 Masse% Kalziumalkylbenzolsulfonat mit 12 bis 14 Kohlenstoffatomen und 0,01 Masse% Dimethylsulfoxid als Adjuvans. Der Verbrauch an Präparat beträgt 6 kg/ha. Als Kontrolle dienen Pflanzen, behandelt mit einem Verdünner ohne Sterilisationsmittel.

[6] = system: tetraploidem Roggen Sorte Belta; test: Field test of pollen sterilisation, tetraploid rye Belta; type: in vivo; settings: 1% aqueous emulsion, 10 kg/ha; for Prozentsatz der Sterilität / Anzahl von Körnern der Ähre bei freier Bestäubung / Anzahl von Körnern der Ähre im Isolator: period V of organogenesis; for Anzahl von Körnern der Ähre bei freier Bestäubung: free pollination; for Anzahl von Körnern der Ähre im Isolator: isolated ears; for Prozentsatz des Ansetzens von Körnern bei freier Bestäubung: period V, non-isolated control ears = 100%
Text: as §1, §2, §3, §4, §5
Pflanzen von tetraploidem Roggen Sorte Belta werden in der V. Periode der Organogenese (nach Kupermann) mit einer 1%igen wässrigen Emulsion von N-(2-Dimethylamino- .äthyl)maleaminsäure, N-(3-Dimethylaminopropyl)maleaminsäure, N-Äthylmaleaminsäure, N-(2-Hydroxyäthyl)maleaminsäure bzw. Karbamoylmaleaminsäure behandelt. Die Emulsion enthält 0,5 Masse% Kalziumalkylbenzolsulfonat mit 12 bis 14 Kohlenstoffatomen und 0,01 Masso% Tetrahydrofuran. Der Verbrauch an Präparat beträgt 10 kg/ha. Die Prüfergebnisse sind in der Tabelle 5 dargestellt. […] Periode der Organogenese erhalten.

[7] = system: diploidem Roggen Sorte Voskhod 2; test: Field test of pollen sterilisation, diploid rye Voskhod 2; type: in vivo; settings: 1% aqueous emulsion, 10 kg/ha; for Prozentsatz der Sterilität / Anzahl von Körnern der Ähre bei freier Bestäubung / Anzahl von Körnern der Ähre im Isolator: period V of organogenesis; for Anzahl von Körnern der Ähre bei freier Bestäubung: free pollination; for Anzahl von Körnern der Ähre im Isolator: isolated ears; for Prozentsatz des Ansetzens von Körnern bei freier Bestäubung: period V, non-isolated control ears = 100%
Text: Die Emulsion enthält 0,1 Masse% Kalziumalkylbenzolsulfonat und 0,01 Masse% Dimethylformamid. Der Verbrauch an Präparat beträgt 10 kg/ha. Als Kontrolle dienen Pflanzen, behandelt mit einem Lösungsmittel ohne Sterilisationsmittel.

[8] = system: diploidem Roggen Sorte Chulpan; test: Field test of pollen sterilisation, diploid rye Chulpan; type: in vivo; settings: 1% aqueous emulsion, 8 kg/ha; for Prozentsatz der Sterilität / Anzahl von Körnern der Ähre bei freier Bestäubung / Anzahl von Körnern der Ähre im Isolator: period V of organogenesis; for Anzahl von Körnern der Ähre bei freier Bestäubung: free pollination; for Anzahl von Körnern der Ähre im Isolator: isolated ears; for Prozentsatz des Ansetzens von Körnern bei freier Bestäubung: period V, non-isolated control ears = 100%
Text: (§6) Mit dem Ahrenschiebe verwirklicht man die Isolierung von Hauptähren und anderen Stockwerken in Pergamentbeuteln. […] Bei Roggen schliesst man je Ähre 5 bis 7 verschiedene nebeneinander befindliche Pflanzen unter einen gemeinsamen Isolator ein. […] Der Sterilitätsprozentsatz (X) für Weizen, Roggen, Tritikale und Hirse wird nach folgender Formel [formula] ermittelt.
Die Emulsion enthält 0,01 Masse% Tetranydrofuran und 0,1 Masse% Kalziumalkylbenzolsulfonat mit 12 bis 14 Kohlenstoffatomen. Der Verbrauch an Präparat beträgt 8 kg/ha. Als Kontrolle dienen Pflanzen, behandelt mit einem Verdünner ohne Sterilisationsmittel.

[9] = system: diploidem Roggen Sorte Talovskaya 12; test: Field test of pollen sterilisation, diploid rye Talovskaya 12; type: in vivo; settings: 1% aqueous emulsion, 6 kg/ha; for Prozentsatz der Sterilität / Anzahl von Körnern der Ähre bei freier Bestäubung / Anzahl von Körnern der Ähre im Isolator: period V of organogenesis; for Anzahl von Körnern der Ähre bei freier Bestäubung: free pollination; for Anzahl von Körnern der Ähre im Isolator: isolated ears
Text: as §6
Pflanzen von diploidem Roggen Sorte Talovskaya 12 werden in der V. Periode der Organogenese (nach Kupermann) mit einer 1%igen wässrigen Emulsion von N-(2-Di- methylaminoäthyl)-maleaminsäure, N-(3-Dimethylaminopropyl)-maleaminsäure, N-Äthylmaleaminsäure, N-(2-Hydroxyäthyl)maleaminsäure, N-Karbamoylmaleaminsäure behandelt. Die Emulsion enthält 0,01 Masse% Dodezylsulfat und 0,1 Masse% Kalziumalkylbenzolsulfonat mit 12 bis _14 Kohlenstoffatomen. Der Verbrauch an Präparat beträgt 6 kg/ha. Als Kontrolle dienen Pflanzen, behandelt mit einem Verdünner ohne Sterilisationsmittel.

[10] = system: Hirse Sorte Mironovskoe 94; test: Field test of pollen sterilisation, millet Mironovskoe 94; type: in vivo; settings: 1% aqueous emulsion, 8 kg/ha; for Prozentsatz der Sterilität / Anzahl von Körnern der Rispe bei freier Bestäubung / Anzahl von Körnern der Rispe im Isolator: period V of organogenesis; for Anzahl von Körnern der Rispe bei freier Bestäubung: free pollination; for Anzahl von Körnern der Rispe im Isolator: isolated panicles; for Prozentsatz des Ansetzens von Körnern bei freier Bestäubung: period V, non-isolated control = 100%
Text: as §1, §2, §3, §4, §5
Pflanzen der Hirse Sorte Mironovskoe 94 werden in der V. Periode der Organogenese (nach Kupermann) mit einer 1%igen wässrigen Emulsion von N-(2-Dimethylaminoäthyl)maleaminsäure, N-(3-Dimethylaminopropyl)maleaminsäure, N-Äthylmaleaminsäure, N-(2-Hydroxyäthyl)maleaminsäure, N-Karbamoylmaleaminsäure behandelt. Die Emulsion enthält 0,01 Masse% Dimethylaulfoxid und 0,1 Masse% Kalziumalkylbenzolsulfonat mit 12 bis 14 Kohlenstoffatomen. Der Verbrauch an Präparat beträgt 8 kg/ha. Als Kontrolle dienen Pflanzen, behandelt mit einem Verdünner ohne Sterilisationsmittel. Die Prüfergebnisse sind in der Tabelle 12 dargestellt. […] Periode der Organogenese erhalten.

[11] = Toxicity test in animals (LD50); settings: in vivo; animal test, per kg animal weight; species and route not given
Text: Alle erfindungsgemässen N-substituierten Maleaminsäuren, welche als Sterilisationsmittel zur Verwendung kommen, waren auf die Toxizität im Tierversuch geprüft. Die Prüfergebnisse haben ergeben, dass die angegebenen Verbindungen von schwacher oder mittlerer Toxizität sind.

SMILES: O=C(O)/C=C\C(=O)NCCO [Beispiel 57, N-(2-Hydroxyäthyl)maleaminsäure]
- Prozentsatz der Sterilität [1]: 100,0%
- Anzahl von Körnern der Rispe bei freier Bestäubung [1]: 127,2
- Anzahl von Körnern der Rispe im Isolator [1]: 0,0
- Prozentsatz des Ansetzens von Körnern bei freier Bestäubung [1]: 86,7%

SMILES: CN(C)CCCNC(=O)/C=C\C(=O)O [Beispiel 55, N-(3-Dimethylaminopropyl)maleaminsäure]
- Prozentsatz der Sterilität [1]: 100,0%
- Anzahl von Körnern der Rispe bei freier Bestäubung [1]: 100,8
- Anzahl von Körnern der Rispe im Isolator [1]: 0,0
- Prozentsatz des Ansetzens von Körnern bei freier Bestäubung [1]: 68,7%

SMILES: CCNC(=O)/C=C\C(=O)O [Beispiel 3, N-Äthylmaleaminsäure]
- Prozentsatz der Sterilität [2]: 99,5%
- Anzahl von Körnern der Ähre bei freier Bestäubung [2]: 40,7
- Anzahl von Körnern der Ähre im Isolator [2]: 0,2
- Prozentsatz des Ansetzens von Körnern bei freier Bestäubung [2]: 95,5%
- Prozentsatz der Sterilität [3]: 99,4%
- Anzahl von Körnern der Ähre bei freier Bestäubung [3]: 42,1
- Anzahl von Körnern der Ähre im Isolator [3]: 0,2
- Prozentsatz des Ansetzens von Körnern bei breier Bestäubung [3]: 98,1%
- Prozentsatz der Sterilität [4]: 98,5%
- Anzahl von Körnern der Ähre bei freier Bestäubung [4]: 26,7
- Anzahl von Körnern der Ähre im Isolator [4]: 0,4
- Prozentsatz des Ansetzens von Körnern bei freier Bestäubung [4]: 97,1%
- Prozentsatz der Sterilität [5]: 100,0%
- Anzahl von Körnern der Ähre bei freier Bestäubung [5]: 28,2
- Anzahl von Körnern der Ähre im Isolator [5]: 0,0
- Prozentsatz des Ansetzens von Körnern bei freier Bestäubung [5]: 93,7%
- Prozentsatz der Sterilität [6]: 99,4%
- Anzahl von Körnern der Ähre bei freier Bestäubung [6]: 52,3
- Anzahl von Körnern der Ähre im Isolator [6]: 0,3
- Prozentsatz des Ansetzens von Körnern bei freier Bestäubung [6]: 95,4%
- Prozentsatz der Sterilität [7]: 100,0%
- Anzahl von Körnern der Ähre bei freier Bestäubung [7]: 53,0
- Anzahl von Körnern der Ähre im Isolator [7]: 0,0
- Prozentsatz des Ansetzens von Körnern bei freier Bestäubung [7]: 96,0%
- Prozentsatz der Sterilität [8]: 99,4%
- Anzahl von Körnern der Ähre bei freier Bestäubung [8]: 49,8
- Anzahl von Körnern der Ähre im Isolator [8]: 0,3
- Prozentsatz des Ansetzens von Körnern bei freier Bestäubung [8]: 87,7%
- Prozentsatz der Sterilität [9]: 100,0%
- Anzahl von Körnern der Ähre bei freier Bestäubung [9]: 50,1
- Anzahl von Körnern der Ähre im Isolator [9]: 0,0
- Prozentsatz der Sterilität [10]: 100,0%
- Anzahl von Körnern der Rispe bei freier Bestäubung [10]: 200,8
- Anzahl von Körnern der Rispe im Isolator [10]: 0,0
- Prozentsatz des Ansetzens von Körnern bei freier Bestäubung [10]: 88,3%
- LD50 [11]: 2000 mg/kg

SMILES: CCNC(=O)/C=C\C(=O)O [Beispiel 56, N-Äthylmaleaminsäure]
- Prozentsatz der Sterilität [1]: 100,0%
- Anzahl von Körnern der Rispe bei freier Bestäubung [1]: 114,7
- Anzahl von Körnern der Rispe im Isolator [1]: 0,0
- Prozentsatz des Ansetzens von Körnern bei freier Bestäubung [1]: 78,2%

SMILES: O=C(O)/C=C\C(=O)NCCO [Beispiel 4, N-(2-Hydroxyäthyl)-maleaminsäure]
- Prozentsatz der Sterilität [2]: 99,3%
- Anzahl von Körnern der Ähre bei freier Bestäubung [2]: 39,8
- Anzahl von Körnern der Ähre im Isolator [2]: 0,3
- Prozentsatz des Ansetzens von Körnern bei freier Bestäubung [2]: 93,4%
- Prozentsatz der Sterilität [3]: 100,0%
- Anzahl von Körnern der Ähre bei freier Bestäubung [3]: 37,1
- Anzahl von Körnern der Ähre im Isolator [3]: 0,0
- Prozentsatz des Ansetzens von Körnern bei breier Bestäubung [3]: 86,5%
- Prozentsatz der Sterilität [4]: 100,0%
- Anzahl von Körnern der Ähre bei freier Bestäubung [4]: 27,0
- Anzahl von Körnern der Ähre im Isolator [4]: 0,0
- Prozentsatz des Ansetzens von Körnern bei freier Bestäubung [4]: 98,2%
- Prozentsatz der Sterilität [5]: 100,0%
- Anzahl von Körnern der Ähre bei freier Bestäubung [5]: 28,7
- Anzahl von Körnern der Ähre im Isolator [5]: 0,0
- Prozentsatz des Ansetzens von Körnern bei freier Bestäubung [5]: 95,3%
- Prozentsatz der Sterilität [6]: 99,6%
- Anzahl von Körnern der Ähre bei freier Bestäubung [6]: 51,6
- Anzahl von Körnern der Ähre im Isolator [6]: 0,2
- Prozentsatz des Ansetzens von Körnern bei freier Bestäubung [6]: 94,2%
- Prozentsatz der Sterilität [7]: 98,4%
- Anzahl von Körnern der Ähre bei freier Bestäubung [7]: 52,2
- Anzahl von Körnern der Ähre im Isolator [7]: 0,8
- Prozentsatz des Ansetzens von Körnern bei freier Bestäubung [7]: 94,6%
- Prozentsatz der Sterilität [8]: 99,8%
- Anzahl von Körnern der Ähre bei freier Bestäubung [8]: 50,1
- Anzahl von Körnern der Ähre im Isolator [8]: 0,1
- Prozentsatz des Ansetzens von Körnern bei freier Bestäubung [8]: 88,2%
- Prozentsatz der Sterilität [9]: 99,3%
- Anzahl von Körnern der Ähre bei freier Bestäubung [9]: 53,2
- Anzahl von Körnern der Ähre im Isolator [9]: 0,3
- Prozentsatz des Ansetzens von Körnern bei freier Bestäubung ([9]; period V, non-isolated control ears = 100%): 94,7%
- Prozentsatz der Sterilität [10]: 100,0%
- Anzahl von Körnern der Rispe bei freier Bestäubung [10]: 215,0
- Anzahl von Körnern der Rispe im Isolator [10]: 0,0
- Prozentsatz des Ansetzens von Körnern bei freier Bestäubung [10]: 94,6%
- LD50 [11]: 1500 mg/kg

SMILES: NC(=O)NC(=O)/C=C\C(=O)O [Beispiel 58, N-Karbamoylmaleaminsäure]
- Prozentsatz der Sterilität [1]: 100,0%
- Anzahl von Körnern der Rispe bei freier Bestäubung [1]: 133,6
- Anzahl von Körnern der Rispe im Isolator [1]: 0,0
- Prozentsatz des Ansetzens von Körnern bei freier Bestäubung [1]: 91,1%

SMILES: CN(C)CCNC(=O)/C=C\C(=O)O [Beispiel 54, N-(2-Dimethylaminoäthyl) maleaminsäure]
- Prozentsatz der Sterilität [1]: 100,0%
- Anzahl von Körnern der Rispe bei freier Bestäubung [1]: 124,2
- Anzahl von Körnern der Rispe im Isolator [1]: 0,0
- Prozentsatz des Ansetzens von Körnern bei freier Bestäubung [1]: 84,7%
